In patent US20020028847A1, “Method for treatment of fibrosis related diseases by the administration of prostacyclin derivatives” (Fibrogen, Inc., priority 1998, published 2002):
Like-named read-outs stand apart in the source and are kept apart here.

Assays:
metastasis = settings: several different animal models; cited from earlier work
scleroderma fibroblasts = experiment: ELISA for collagen (N propeptide of Type I collagen α chain) in cultured skin fibroblasts; assay type: cell-based, human
Description: 4 mm punch skin biopsies were taken from the forearms of healthy volunteers and from patients with active diffuse scleroderma. Fibroblasts from these biopsies were subcultured to passage 6 in Dulbecco's modified eagle medium with 10% fetal calf serum and Pen Strep solution and grown to confluence. Twenty-four hours before assay, the fibroblasts were switched to serum free media with exchange of media every eight (8) hours. Upon switching to serum free medium (L-ascorbic acid phosphate magnesium salt n-hydrate) (C6H6O9P) 3/2 Mg was added at a final concentration of 30 μg/ml. The supernatant fluid from the above described culture was diluted 1/100 in 0.1 M NaHCO3 and 100 μl of said diluted culture was added to each well of a 96 well maxisorp plate. The plate was then left at room temperature for two hours on a plate shaker. The plate was then washed once in PBS. 200 μl of 2% BSA in PBS was then added and the plate was left for two hours to block non-specific binding. The plate was then washed four times in PBS and first layer antibody, anti-N-procollagen I rabbit polyclonal, diluted 1/2000 in 1% BSA PBS, was added at 100 μl/well. The plate was left for two (2) hours at room temperature and then washed four times in PBS. A second layer antibody, HRP labeled goat anti-rabbit IgG 1/2000, was then added and left for two hours. […] The plate was then read on a multiwell analyser.

CTGF RNA = experiment: Northern blot for CTGF RNA; assay type: cell-based; settings: cells treated with TGF-β and iloprost
Procedure: Cultured cells are grown to confluence on 100 mm plates. The cells were then serum starved with ascorbate for 24 hours, after which conditioned medium with TGF-β and Iloprost was added. The cells were then lysed with TRIzol (Gibco catalog no. 15596-018) wherein 1 ml per plate of the TRIzol was added and the plate was left at room temperature for ten minutes. 200 μl of chloroform was then added and the cells were vortexed for 20 seconds. The cells were then left alone for 5 minutes at room temperature and then centrifuged in a microcentrifuge tube for 10 minutes at maximum speed at 4° C. The upper layer was then removed (layer containing RNA) and then mixed with an equal volume of isopropanol. The mixture was then centrifuged for 10 minutes to form a pellet of RNA. 0.5 ml of 70% ethanol in RNAse free purified water was then added to the pellet. The ethanol was then tipped off and the pellet was left to dry. After five minutes, the pellet was resuspended in 20 μl of RNAse free water and kept on ice. To assay the RNA using a photospectometer, a sample of the RNA was diluted 1/500 (volume 1 ml) and read at OD 260 nm (to measure RNA) and 280 nm (to measure protein). RNA concentration was calculated in terms of μg/μl=(OD260×40×dilution)/1000. […]

[1] = tested on: platelet thrombus formation; settings: animals with thrombin induced thrombosis; cited from earlier work
CTGF = CTGF ELISA on cultured skin fibroblasts; assay type: cell-based, human; settings: scleroderma fibroblasts
Description: 4 mm punch skin biopsies were taken from the forearms of healthy volunteers and from patients with active diffuse scleroderma. Fibroblasts from these biopsies were subcultured to passage 6 in Dulbecco's modified eagle medium with 10% fetal calf serum and Pen Strep solution and grown to confluence. Twenty-four hours before assay, the fibroblasts were switched to serum free media with exchange of media every eight (8) hours. Upon switching to serum free medium (L-ascorbic acid phosphate magnesium salt n-hydrate) (C6H6O9P) 3/2 Mg was added at a final concentration of 30 μg/ml. The following protocol was used for the CTGF ELISA: 1. Plate antigen on Nunc immuno plase Maxisorp surface (catalog number 442402). 2. CTGF standard curve by two fold serial dilution in 6 triplicates (see Table 1, below). 3. Add 50 μl of sample to each well. 4. Leave wells for 2 hours at room temperature. 5. Wash wells 4 times with PBSa. 6. Add first layer antibody (pAB2 rabbit anti-human CTGF (0.8 mg/ml)( 1/1280)) diluted to 625 ng/ml in blocking buffer (1% BSA/0.05% tween20/PBS). 7. Add 50 μl to each well and leave at room temperature for one hour. 8. Wash wells five times with PBS. 9. Add second layer antibody donkey anti-rabbit IgG, HRP linked whole antibody (Amersham Life Sciences, Catalog No. NA 934 diluted 1/3200 in block buffer). 10. […] Stop reaction with 50 μl per well of 1M H2SO4 and read OD at 450 nm.

CTGF promoter = experiment: CTGF promoter/luciferase transfection assay in normal human fibroblasts; assay type: cell-based; settings: measured over a twenty-four hour period
Procedure: Normal human fibroblasts were grown to 80% confluence in a 6 well plate. 1 μg of DNA (CTGF promoter/luciferase) was added with 3 μl of FuGene 6 transfection reagent (Boehringer Mannheim 1814443); wherein the FuGene 6 was added dropwise to serum free culture medium and left at room temperature for five minutes and added to 1 µg of DNA in a separate tube for fifteen minutes. The DNA/FuGene 6 solution was then added dropwise to the cell culture by spreading around each well and swirling the flasks. The cell culture was returned to an incubator and the cells were grown again to confluence, approximately 36 hours. The cells were then switched to a serum free medium with ascorbate and left overnight. The cells were then treated for 24 hours as follows: control; Iloprost 1000 pg/ml; TGF-β 20 ng/ml; and TGF-β 20 ng/ml+Iloprost 1000 pg/ml.
After 24 hours the cells were lysed with Promega reporter lysis buffer (E 397A) at room temperature, 400 μl per […] and left for 15 minutes at room temperature. A 50 μl sample of the lysate was drawn and 100 μl of luciferase assay reagent (Promega E 148A) was added. Chemiluminensence was read using a plate reader program ARQ.1PT software micro P1.00.

[2] = tested on: renal interlobar and cortical arteries; settings: scleroderma patients, iloprost infusions; cited from earlier work
Raynaud's phenomena = settings: patients; cited from earlier work

Row | Structure (SMILES) | inhibition of metastasis (metastasis) | excessive production of collagen (scleroderma fibroblasts) | excessive production of collagen (scleroderma fibroblasts; listed as iloprost) | TGF-β induced synthesis of CTGF RNA (CTGF RNA) | TGF-β induced synthesis of CTGF RNA (CTGF RNA; listed as iloprost) | platelet thrombus formation [1] | CTGF production (CTGF) | CTGF production (CTGF; listed as iloprost) | time of most pronounced inhibitory effect on CTGF production (CTGF promoter) | resistive index of the renal interlobar and cortical arteries [2] | safety and efficacy in Raynaud's phenomena (Raynaud's phenomena)
1 | CCC#CC[C@H](C)[C@H](O)C#C[C@@H]1[C@H]2C/C(=C/COCC(=O)O)C[C@H]2C[C@H]1O [cicaprost] | effectively inhibit metastasis |  |  |  |  |  |  |  |  |  | 
2 | CC#CCC(C)[C@H](O)/C=C/[C@@H]1[C@H]2C/C(=C/CCCC(=O)O)C[C@H]2C[C@H]1O (stereo partly drawn) [Iloprost, 5-(E)-(1S,5S,6R)-7-hydroxy-6[(E)-(3S,4RS)-3-hydroxy-4-methyl-1-octen-6-inyl]bicyclo[3.3.0]octen-3-ylidene pentanoic acid] |  | inhibited | capable of inhibiting collagen production | inhibit CTGF production | blocked | prevent platelet thrombus formation | decrease in CTGF production | capable of inhibiting collagen production and CTGF production | most pronounced between hour 1 and hour 3 | reduction of the resistive index | safe and effective therapy
3 | CCC#CC[C@H](C)[C@H](O)C#C[C@@H]1[C@H]2C/C(=C/COCCCC(=O)O)C[C@H]2C[C@H]1O [eptaloprost] | antimetastically acting agents |  |  |  |  |  |  |  |  |  | 
